# Test results published in the METLIN SMRT retention time set (Domingo-Almenara et al. 2019).
# Assay: gradient 5% acetonitrile 3 min, to 50% in 2 min, to 85% in 15 min, held 3 min, 100 µL/min
# Settings: column: Zorbax Extend-C18 2.1 x 50 mm; eluents: water / acetonitrile, 0.1% formic acid
# Procedure, shortened: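 Retention times come from adduct peaks that were picked computationally and then checked by hand. The standards, pure and pooled in mixtures of ~100 molecules, were run on a Zorbax Extend-C18 column (2.1 × 50 mm, 1.8 μm) at 100 μL/min with water and acetonitrile, each with 0.1% formic acid. Detection was by quadrupole time-of-flight mass spectrometry in positive and negative ionization mode, with a dead volume of 40 μL and a dwell volume of 900 μL.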
row,Compound,RP-LC retention time [s]
1,CCN1C(=O)COc2cc(-c3noc(C(=O)NCCc4ccccc4)n3)ccc21,953
2,CC(=O)Nc1cccc(C2OC(c3ccc(Cl)cc3Cl)=NN2C(C)=O)c1 (stereo not drawn),914
3,CC1CCCN(c2ccc(-c3noc(CN4CCC(C(N)=O)CC4)n3)cn2)C1 (stereo not drawn),589
4,Cc1cc(Cl)ccc1NC(=O)C1CCN(C(=O)c2ncn3c2COC(c2ccc(F)cc2)C3)CC1 (stereo not drawn),871
5,O=C(CCc1nnc2c3cc(-c4ccccc4)nn3ccn12)N1CCC2(CC1)OCCO2,686
6,COc1ccc(C(=O)NC2CCN(c3ccc(=O)n(C)n3)C2)c(OC)n1 (stereo not drawn),742
7,CCn1cc(-c2nc(C(=O)Nc3ccc(Cl)cc3F)cs2)c2cccnc21,1350
8,CCCN(C)C(=O)C1CCCN(c2cnc3nccnc3c2)C1 (stereo not drawn),655
9,O=C(c1ccc2c(c1)OCO2)N1CCN(c2nc(CN3CCCCC3)cs2)CC1,620
10,Cc1ccc(C(=O)NCCn2c(=O)n(Cc3ccccc3)c3cccnc32)s1,805
11,Cc1ccsc1C(=O)NC1(c2nc(-c3cccnc3)no2)CCCCC1,937
12,Cc1cccc(CN2CC(=O)N(c3ccc(C)c(C)c3)[C@@H]3CS(=O)(=O)C[C@@H]32)c1,906
13,O=S(=O)(c1cccc(-c2nc(-c3ccccc3)no2)c1)N1CCCc2ccccc21,1350
14,CC(C)CNC(=O)N1c2ccccc2CC1c1nc(C2CC2)no1 (stereo not drawn),925
15,Cc1ccc(-c2cc(C(=O)NCCCN3CCC(C)CC3)c(C)[nH]2)cc1C,725
16,O=C(Cc1ccc(Cl)cc1)Nc1nnc(C2CC(=O)N(c3ccc(F)cc3)C2)o1 (stereo not drawn),772
17,CCOC(=O)c1noc2nc(C)nc(NC(C)c3ccccc3)c12 (stereo not drawn),1140
18,COc1cc2nc(C(=O)N3CCCCC3)cc(Nc3ccc(Br)c(C)c3)c2cc1OC,779
19,O=C(CSc1nnc(CCN2CCOCC2)o1)Nc1ccc(F)c(Cl)c1,571
20,CN1CCC(Oc2ncccc2NS(=O)(=O)N(C)C)CC1,575
21,CN1C(=O)c2cc(C(=O)NCCCc3ccccc3)nn2CC1(C)C(=O)NCc1ccccc1 (stereo not drawn),814
22,COc1cccc(-n2c(=O)c(C(=O)Nc3ccc(F)cc3Cl)c(O)c3cccnc32)c1,1290

row,Compound,RP-LC retention time [s]
1,COc1cccc(CNC(=O)Nc2ccc3nc(N4CCN(C)CC4)cc(C)c3c2)c1,580
2,O=C(Nc1ccc(Cl)cc1)N1CCC(n2cnc3ccc(F)cc3c2=O)CC1,848
3,CCc1nn2c(S(=O)(=O)NC3CCCC3)c(C)nc2s1,799
4,Cc1cn(C)c(CC(=O)NCCN2CCCc3ccccc32)c1C(=O)O,792
5,Nc1cc(C2CCN(C(=O)Nc3ccc(F)cc3F)CC2)no1,666
6,COc1ccc2c(c1)c(CN1CCC(C(=O)NCCN3CCOCC3)CC1)cn2C,553
7,CCN1CCN(C(=O)C2CCCN(c3nc4ccccc4n(Cc4ccccc4)c3=O)C2)CC1 (stereo not drawn),706
8,COc1ccc(OC)c(NC(=O)Cn2c(=O)n(-c3ccccc3)c3ncccc32)c1,841
9,NC(=O)C1CCCN(C(=O)c2ccc(F)cc2F)C1 (stereo not drawn),599
10,CCOC(=O)c1cc(C2CC2)nc2c1c(=O)n(Cc1cccc(Cl)c1)c(=O)n2C,1200
11,O=C(NC1CCN(c2cc(-c3cccs3)[nH]n2)C1)c1ccccc1 (stereo not drawn),695
12,Cn1cc(C(=O)NCc2ccc(F)cc2F)c(S(=O)(=O)N2CCSCC2)n1,876
13,COc1ccc(-c2csc(Nc3cc(C)ccn3)n2)cc1,783
14,Cn1cc2c(n1)c(=O)n(Cc1ccccc1)c(=O)n2CC(=O)NCc1ccccc1,769
15,O=C1C(OC2CCN(Cc3cc(F)ccc3F)CC2)CCN1C1CCCC1 (stereo not drawn),641
16,Cc1ccc(-c2cc3c(=O)n(Cc4noc(CN5CCCC5)n4)ccn3n2)cc1C,697
17,CCCCNC(=O)COc1c(C)cc(Br)cc1C,1000
18,COc1ccccc1-c1csc(NC(=O)c2sc(-c3ccccc3)nc2C)n1,1250
19,CC(=O)N1C[C@@H]2CCCN3CCC[C@@H]([C@H]23)[C@H]1CCCC(=O)NCCCc1c(C)noc1C,575
20,O=C(CN1C(=O)CCCc2cc(S(=O)(=O)N3CCCC3)ccc21)Nc1ccc(Cl)cc1F,897
21,CC(C)N1CCN(Cc2ccc(C(=O)NCc3ccccc3)cc2)C(=O)C1=O,685
22,Cc1cnc(SCc2ccc(Cl)cc2Cl)[nH]c1=O,970

row,Compound,RP-LC retention time [s]
1,COc1ccc(-c2cn3c(CC(=O)N(Cc4ccco4)C4CCCCC4)csc3n2)cc1OC,890
2,Cc1ccc(CNC(=O)C2CCN(Cc3cc4ccccc4n3Cc3cccc(Cl)c3)CC2)o1,943
3,Cc1csc(-c2cc(S(=O)(=O)NCC(C)C)cn2CC(=O)N2CCCCC2)n1,926
4,COc1ccc(CNS(=O)(=O)c2c(C)sc(C)c2-c2cc(C(F)(F)F)on2)cc1,1150
5,O=C(Cn1cccc(-c2nc(-c3ccc(F)cc3)no2)c1=O)Nc1cc(F)ccc1F,915
6,COCCNC(=O)C1CCN(c2nccnc2Sc2ccccc2)CC1,764
7,CCOc1nc2ccccc2nc1N1CCCC(C(=O)N2CCN(c3ccc(OC)cc3)CC2)C1 (stereo not drawn),1190
8,CCc1nc(OCC(=O)Nc2ccc(C)c(F)c2)c2ccccc2n1,872
9,CC(=O)N1CCc2cc(-c3ccc(C(=O)NCc4ccccn4)cc3)ccc21,584
10,Cn1nc2n(c1=O)CCN(S(=O)(=O)Cc1ccccc1)CC2,659
11,CCOC(=O)N1CCN(C2CC(=O)N(CCc3ccc(OC)c(OC)c3)C2=O)CC1 (stereo not drawn),659
12,Cc1cccc(N(C)C(=O)Cn2cnc3nc4c(cc3c2=O)CCCC4)c1,705
13,COc1ccc(S(=O)(=O)N2CCC(C(=O)NCCc3csc(-c4ccccc4)n3)CC2)cc1,912
14,Cc1ccc(CNC(=O)N2CCC(n3c(-c4ccco4)nc4cccnc43)C2)cc1 (stereo not drawn),762
15,Cc1ccc(NC(=O)C2CCCN2S(=O)(=O)c2cc3c(cc2C)NC(=O)CO3)cc1 (stereo not drawn),758
16,CC(C)NC(=O)Cn1c2ccccc2n2c(=O)cc(-c3cccc(Cl)c3)nc12,926
17,CC(C)c1ccc(-c2ccc(=O)n(CCc3nc(-c4ccc5c(c4)OCO5)no3)n2)cc1,1140
18,COc1ccc2c(Oc3ccc(NC(=O)c4c(C)n(CC(C)(C)O)n(-c5ccccc5)c4=O)nc3)ccnc2c1,707
19,Cc1nc(C)c(C(=O)N2CCCC(n3c(C)cnc3C3CCC3)C2)s1 (stereo not drawn),591
20,O=C(NC1CCCCC1)C1CCCN(c2ccc3cc(S(=O)(=O)N4CCCCC4)ccc3n2)C1 (stereo not drawn),832
21,Cc1c(C(=O)N2CCN(c3ccc(F)cc3)CC2)sc2nc[nH]c(=O)c12,706
22,COc1ccc(Cl)cc1NC(=O)N1CCC(C(=O)Nc2cc(C)on2)CC1,645

row,Compound,RP-LC retention time [s]
1,Clc1ccc(Nc2c(-c3cccc(Cl)c3)nc3ccc(Cl)cn23)cc1,1140
2,Cc1noc2nc(CCC(=O)NCc3ccc(Cl)cc3)nc(N3CCOCC3)c12,740
3,CCCCNC(=O)Cc1nnc(-c2cccc(F)c2)o1,731
4,Cc1noc2ncnc(N3CCCC(C(=O)N4CCCc5ccccc54)C3)c12 (stereo not drawn),878
5,Cc1c2cnccc2c(C)c2c1c1ccccc1n2CCOC(=O)c1ccccc1,751
6,COc1ccc(CCNC(=O)C2CCc3nc(N4CCCC4)ncc3C2)cc1OC (stereo not drawn),563
7,CC(Oc1ccc(=O)n(-c2ccc(F)cc2)n1)C(=O)Nc1cccc(F)c1 (stereo not drawn),793
8,COc1ccc(NC(=O)c2cnc3c(c2)c(=O)n(C)c(=O)n3-c2ccc(C)cc2)c(OC)c1,913
9,O=C(Nc1ccc(-c2cn3cccnc3n2)cc1)c1cccs1,629
10,Cc1nc(-c2cn(C(C)C)c3ncccc23)sc1C(=O)N1CCCC(C)C1 (stereo not drawn),1050
11,O=C(NCc1ccc(F)cc1F)C1CCN(C(=O)c2ncn3c2COC(c2ccc(F)cc2)C3)CC1 (stereo not drawn),776
12,Cc1nn(C)c(C)c1CCN(C)C(=O)C1CCCCC(=O)N1 (stereo not drawn),570
13,Cc1ccccc1NC(=O)C1CCCN(C(=O)c2nn(C)c3c2CN(C(=O)C(C)(C)C)CC3)C1 (stereo not drawn),802
14,CCc1nnc(-c2ccc(S(=O)(=O)N3CCOCC3)o2)o1,714
15,CCN(CCN(C)C)c1ccc(NS(=O)(=O)c2ccccc2)cc1C(=O)O,582
16,CC(=O)N1c2ccc(S(=O)(=O)N3CCCCC3)cc2CC1C(=O)Nc1cc(C)ccc1C (stereo not drawn),912
17,COc1cccc(NC(=O)Cn2nc3n(c2=O)CCCC3)c1,634
18,CCOC(=O)c1cccc(Nc2c(-c3ccc(N(C)C)cc3)nc3cnccn23)c1,837
19,CCOC(=O)C1=C(C)N(CC(=O)NC(C)CC)c2ncnn2C1c1ccc(C)cc1 (stereo not drawn),910
20,Cc1ccccc1-c1noc(CN2C(=O)C(C)Oc3ccccc32)n1 (stereo not drawn),1110
21,Cc1ccn2cc(C(=O)NCC3CCCCC3)nc2c1,714
22,COc1ccc(NS(=O)(=O)c2cc3n(c2)CCCNC3=O)c(C)c1,640
